Key:
[1] = test system: marrow cells (mononuclear cell fraction); assay: Proliferation-stimulating effect on marrow cell of mouse (3H-TdR uptake); type: cell-based, mouse (BALB/c); details: percentage of control, 72 h; for activity at 0.1 µg/mL: 10^-1 μg/ml; for activity at 0.01 µg/mL: 10^-2 μg/ml; for activity at 0.001 µg/mL: 10^-3 μg/ml; for activity at 1 µg/mL: 10^0 μg/ml
Method: Pharmacological Test 1: Proliferation-Stimulating Effect on Marrow Cell of Mouse
Marrow cells were prepared from the thigh bone of a 7 week old female BALB/c mouse purchased from Japan SLC Co., Ltd., and a mononuclear cell fraction (MNF) obtained by fractionation using a lympholyte-M (Cedar Lane, Ontario, Canada) was used in the following experiment.
The concentration of the MNF was adjusted to 1.5×10^6 cells/ml by using 10% FCS RPMI 1640 (Nissui Pharmaceutical Co., Ltd., Tokyo, Japan) as a culture medium. 10 μl/well of a sample with a predetermined concentration and 100 μl/well of the above-prepared MNF were placed on a round-bottomed 96 well plate, and incubated under the conditions of 37° C. and 5% CO2 for 72 hours. Thereafter, 0.5 μCi/well of ^3 H-thymidine (^3 H-TDR) was added. After 8 hour incubation, the cells were harvested, and the amount of the 3H-TdR taken in the nuclei was measured by a liquid scintillation counter.

blood platelets [2] = assay: Blood-platelet-increasing effect upon normal mouse; type: in vivo, mouse (BDF1); details: normal mice; 6 days after 0.1 mg/kg i.v.; mean ± SD; vehicle per series 58.2, 63.0, 71.1
Method: Pharmacological Test 6: Blood-Platelet-Increasing Effect upon Mouse
An experiment was carried out by using 6 week old female BDF1 mice purchased from Japan SLC Co., Ltd., with 5 mice made one group.
Each sample was administered to the caudal vein of the mice at a dose of 0.1 mg/kg. After 6 days, blood was collected from the fundus vein of the mice, and the number of blood platelets was measured by a sequential multi-channel hemocytometer E-2500/cs (Toa Iyo Denshi Kabushiki Kaisha). The number of blood platelets of the vehicle-administered group, and that of the sample-administered group are shown in Table 6.

[3] = Life-span-increasing effect on irradiation of a lethal dose of radiation; type: in vivo, mouse (BDF1); details: 10 mice/group, 9 Gy X-ray, 0.1 mg/kg i.v. days 0, 4, 8
Method: Pharmacological Test 4: Life-Span-Increasing Effect on Irradiation of a Lethal Dose of Radiation
An experiment was carried out by using 6 week old female BDF1 mice purchased from Japan SLC Co., Ltd., with 10 mice made one group.
The entire bodies of the entire body of the mice were irradiated with 9 Gy of X-rays by using a Hitachi X-ray irradiator (MBR-1520R), and the day on which the X-ray was irradiated was referred to as "day 0".

blood platelets [4] = assay: Thrombocytopenia-inhibiting effect in X-ray-irradiated mice; type: in vivo, mouse (BDF1); details: 10 days after 5 Gy X-ray; 0.1 mg/kg i.v. within 2 h; mean ± SD; vehicle per series 10.3, 6.8, 6.7; non-treatment 68.2, 96.9, 73.0
Method: Pharmacological Test 5: Thromboclytopenia-Inhibiting Effect
The thrombocytopenia-inhibiting effect of each sample upon an X-ray-irradiated mouser which is one of models with a decreased number of blood platelets was examined.
An experiment was carried out by using 6 week old female BDF1 mice purchased from Japan SLC Co., Ltd., with 6 mice made one group.
5 Gy of X ray was irradiated to the entire body of the mice by a Hitachi X-ray irradiator CMBR-1520R). Within 2 hours after the irradiation, each sample was administered to the caudal vein of the mice at an amount of 0.1 mg/kg.
After 10 days, blood was collected from the fundus vein of the mice, and the number of blood platelets was measured by a sequential multi-channel hemocytometer E-2500/cs (Toa Iyo Denshi Kabushiki Kaisha). The number of blood platelets of the non-treated group, that of the medium-administered group, and that of the sample-administered group are shown in Table 5.

[5] = day 10, controls per series 10, 10, 10, 10, 10, 8
[6] = day 15, controls per series 8, 9, 5, 5, 7, 1
[7] = day 20, controls per series 4, 5, 1, 2, 3, 0
[8] = day 25, controls per series 3, 3, 0, 0, 2, 0
[9] = day 30, controls per series 1, 1, 0, 0, 0, 0

SMILES	activity at 0.1 µg/mL [1]	activity at 0.01 µg/mL [1]	activity at 0.001 µg/mL [1]	Number of Blood Platelets (blood platelets [2])	Number of Surviving Mice [3, 5]	Number of Surviving Mice [3, 6]	Number of Surviving Mice [3, 7]	Number of Surviving Mice [3, 8]	Number of Surviving Mice [3, 9]	Number of Surviving Mice ([3]; day 35, all controls 0)	Number of Surviving Mice ([3]; day 40, all controls 0)	Number of Blood Platelets (blood platelets [4])	activity at 1 µg/mL [1]
CCCCCCCCCCCCCCCCCCCCCCCC(=O)N[C@@H](CO[C@H]1O[C@H](CO)[C@H](O)[C@H](O)[C@H]1O)[C@H](O)CCCCCCCCCCCCCCC [Compound 1, (2S,3R)-1-(α-D-galactopyranosyloxy)-2-tetracosanoylamino-3-octadecanol]	465%	263%	134%	112.2 ± 6.5 × 10^4 /μl	10 mice	10 mice	10 mice	9 mice	9 mice	9 mice	9 mice	25.4 ± 6.8 × 10^4 /μl	–
CCCCCCCCCCCCCCCCCCCCCC(=O)N[C@@H](CO[C@H]1O[C@H](CO)[C@H](O)[C@H](O)[C@H]1O)[C@H](O)CCCCCCCCCCCCCCC [Compound 2, (2S,3R)-2-docosanoylamino-1-(α-D-galactopyranosyloxy)-3-octadecanol]	295%	92%	123%	96.3 ± 7.3 × 10^4 /μl	10 mice	10 mice	9 mice	9 mice	9 mice	9 mice	8 mice	21.5 ± 5.4 × 10^4 /μl	915%
CCCCCCCCCCCCCCCCCCCC(=O)N[C@@H](CO[C@H]1O[C@H](CO)[C@H](O)[C@H](O)[C@H]1O)[C@H](O)CCCCCCCCCCCCCCC [Compound 3, (2S,3R)-1-(α-D-galactopyranosyloxy)-2-icosanoylamino-3-octadecanol]	234%	87%	84%	102.0 ± 10.8 × 10^4 /μl	10 mice	9 mice	8 mice	8 mice	8 mice	8 mice	8 mice	20.6 ± 4.5 × 10^4 /μl	–
CCCCCCCCCCCCCCCCCC(=O)N[C@@H](CO[C@H]1O[C@H](CO)[C@H](O)[C@H](O)[C@H]1O)[C@H](O)CCCCCCCCCCCCCCC [Compound 4, (2S,3R)-1-(α-D-galactopyranosyloxy)-2-octadecanoylamino-3-octadecanol]	297%	75%	151%	83.1 ± 6.5 × 10^4 /μl	10 mice	10 mice	8 mice	7 mice	5 mice	5 mice	5 mice	14.3 ± 4.7 × 10^4 /μl	–
CCCCCCCCCCCCCCC[C@@H](O)[C@H](CO[C@H]1O[C@H](CO)[C@H](O)[C@H](O)[C@H]1O)NC(=O)CCCCCCCCC [Compound 6, (2S,3R)-2-decanoylamino-1-(α-D-galactopyranosyloxy)-3-octadecanol]	391%	196%	71%	93.0 ± 12.1 × 10^4 /μl	9 mice	6 mice	2 mice	2 mice	2 mice	2 mice	2 mice	15.4 ± 3.2 × 10^4 /μl	–
CCCCCCCCCCCCCCC[C@@H](O)[C@H](CO[C@H]1O[C@H](CO)[C@H](O)[C@H](O)[C@H]1O)NC(=O)CCCCCCC [Compound 7, (2S,3R)-1-(α-D-galactopyranosyloxy)-2-octanoylamino-3-octadecanol]	631%	351%	313%	76.0 ± 5.1 × 10^4 /μl	10 mice	8 mice	6 mice	5 mice	5 mice	5 mice	5 mice	12.3 ± 4.0 × 10^4 /μl	972%
CCCCCCCCCCCCCCC[C@@H](O)[C@H](CO[C@H]1O[C@H](CO)[C@H](O)[C@H](O)[C@H]1O)NC(C)=O [Compound 8, (2S,3R)-2-acetamino-1-(α-D-galactopyranosyloxy)-3-octadecanol]	232%	81%	129%	96.6 ± 3.2 × 10^4 /μl	10 mice	5 mice	1 mice	1 mice	1 mice	1 mice	1 mice	8.1 ± 2.6 × 10^4 /μl	–
CCCCCCCCCCCCCCCCCCCCCCCC(=O)N[C@@H](CO[C@H]1O[C@H](CO)[C@H](O)[C@H](O)[C@H]1O)[C@H](O)CCCCCCCCCCC [Compound 9, (2S,3R)-1-(α-D-galactopyranosyloxy)-2-tetracosanoylamino-3-tetradecanol]	547%	103%	134%	100.5 ± 8.3 × 10^4 /μl	10 mice	8 mice	6 mice	6 mice	6 mice	6 mice	6 mice	17.6 ± 3.4 × 10^4 /μl	–
CCCCCCCCCCCCCC(=O)N[C@@H](CO[C@H]1O[C@H](CO)[C@H](O)[C@H](O)[C@H]1O)[C@H](O)CCCCCCCCCCCCC [Compound 10, (2S,3R)-1-(α-D-galactopyranosyloxy)-2-tetradecanoylamino-3-hexadecanol]	356%	90%	77%	87.2 ± 4.0 × 10^4 /μl	10 mice	8 mice	7 mice	7 mice	7 mice	7 mice	7 mice	19.6 ± 4.0 × 10^4 /μl	–
